Columns and labels:
[1] = target: Dual 3',5'-cyclic-AMP and -GMP phosphodiesterase 11A (Homo sapiens) (UniProt Q9HCR9); assay: Inhibition of human recombinant PDE11A using [3H]-cAMP as substrate at 10 uM after 30 mins by two-step radiometric assay
[2] = Metabolic stability in Wistar rat liver microsomes incubated for 10 mins prior to NADPH addition measured after 60 mins by LC/MS/MS analysis; type: ADME; conditions: read-out: Stability
[3] = Metabolic stability in Beagle dog liver microsomes incubated for 10 mins prior to NADPH addition measured after 60 mins by LC/MS/MS analysis; type: ADME, Canis lupus familiaris; conditions: read-out: Stability
[4] = Metabolic stability in human liver microsomes incubated for 10 mins prior to NADPH addition measured after 60 mins by LC/MS/MS analysis; type: ADME; conditions: read-out: Stability
[5] = target: T1, cAMP and cAMP-inhibited cGMP 3',5'-cyclic phosphodiesterase 10A (Homo sapiens, UniProt Q9Y233); assay: Inhibition of human recombinant GST-tagged PDE10A using [3H]-cAMP as substrate at 1 uM after 30 mins by scintillation proximity assay
[6] = target: cGMP-specific 3',5'-cyclic phosphodiesterase (Homo sapiens) (UniProt O76074); assay: Inhibition of human recombinant PDE5A using […] as substrate at 1 uM after 30 mins by scintillation proximity assay
[7] = target: cGMP-dependent 3',5'-cyclic phosphodiesterase (Homo sapiens) (UniProt O00408); assay: Inhibition of human recombinant PDE2A using cAMP as substrate at 10 uM after 30 mins by HTRF method
[8] = target: cGMP-inhibited 3',5'-cyclic phosphodiesterase 3A (Homo sapiens) (UniProt Q14432); assay: Inhibition of human recombinant PDE3A using cAMP as substrate at 1 uM after 30 mins by HTRF method
[9] = target: 3',5'-cyclic-AMP phosphodiesterase 4D (Homo sapiens) (UniProt Q08499); assay: Inhibition of human recombinant PDE4D using [3H]-cAMP as substrate at 1 uM after 30 mins by two-step radiometric assay
[10] = Metabolic stability in cynomolgus monkey liver microsomes incubated for 10 mins prior to NADPH addition measured after 60 mins by LC/MS/MS analysis; type: ADME, Macaca fascicularis; conditions: read-out: Stability
[11] = target: cGMP-dependent 3',5'-cyclic phosphodiesterase (Homo sapiens) (UniProt O00408); assay: Inhibition of human recombinant PDE2A using cAMP as substrate at 1 uM after 30 mins by HTRF method
[12] = target: cGMP-inhibited 3',5'-cyclic phosphodiesterase 3A (Homo sapiens) (UniProt Q14432); assay: Inhibition of human recombinant PDE3A using cAMP as substrate at 10 uM after 30 mins by HTRF method
[13] = target: T1, cAMP and cAMP-inhibited cGMP 3',5'-cyclic phosphodiesterase 10A; assay: Inhibition of human recombinant GST-tagged PDE10A using [3H]-cAMP as substrate after 30 mins by scintillation proximity assay
[14] = target: 3',5'-cyclic-AMP phosphodiesterase 4D (Homo sapiens) (UniProt Q08499); assay: Inhibition of human recombinant PDE4D using [3H]-cAMP as substrate at 10 uM after 30 mins by two-step radiometric assay
[15] = target: T2, cAMP and cAMP-inhibited cGMP 3',5'-cyclic phosphodiesterase 10A (Rattus norvegicus, UniProt Q9QYJ6); assay: Inhibition of rat recombinant GST-tagged PDE10A using [3H]-cAMP as substrate by scintillation proximity assay
T2 sequence (Q9QYJ6 whole entry): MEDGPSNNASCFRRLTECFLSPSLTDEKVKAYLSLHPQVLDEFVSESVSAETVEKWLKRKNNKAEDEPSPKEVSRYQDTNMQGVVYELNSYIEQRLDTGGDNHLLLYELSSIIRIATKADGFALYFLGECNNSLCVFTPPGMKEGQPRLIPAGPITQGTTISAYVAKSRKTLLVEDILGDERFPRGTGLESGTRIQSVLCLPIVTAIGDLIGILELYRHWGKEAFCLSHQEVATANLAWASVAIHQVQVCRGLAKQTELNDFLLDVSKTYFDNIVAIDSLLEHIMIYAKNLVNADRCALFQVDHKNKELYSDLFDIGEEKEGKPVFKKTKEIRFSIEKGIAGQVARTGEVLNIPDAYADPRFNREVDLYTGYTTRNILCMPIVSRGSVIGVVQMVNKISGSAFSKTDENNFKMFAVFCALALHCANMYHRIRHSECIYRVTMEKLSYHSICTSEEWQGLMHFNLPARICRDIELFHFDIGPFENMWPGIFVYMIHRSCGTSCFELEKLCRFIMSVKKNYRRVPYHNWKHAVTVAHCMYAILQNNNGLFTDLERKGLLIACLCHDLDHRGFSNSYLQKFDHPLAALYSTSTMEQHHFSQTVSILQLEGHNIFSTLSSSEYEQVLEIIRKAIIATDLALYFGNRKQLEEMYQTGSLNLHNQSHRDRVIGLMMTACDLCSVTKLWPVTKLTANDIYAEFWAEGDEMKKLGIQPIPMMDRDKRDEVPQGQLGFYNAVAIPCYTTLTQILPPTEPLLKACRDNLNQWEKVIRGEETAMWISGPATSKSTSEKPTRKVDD

[16] = target: High affinity 3',5'-cyclic-AMP phosphodiesterase 7A (Homo sapiens) (UniProt Q13946); assay: Inhibition of human recombinant PDE7A using [3H]-cAMP as substrate at 10 uM after 30 mins by two-step radiometric assay
[17] = target: cGMP-specific 3',5'-cyclic phosphodiesterase (Homo sapiens) (UniProt O76074); assay: Inhibition of human recombinant PDE5A using […] as substrate at 10 uM after 30 mins by scintillation proximity assay
[18] = target: High affinity 3',5'-cyclic-AMP phosphodiesterase 7A (Homo sapiens) (UniProt Q13946); assay: Inhibition of human recombinant PDE7A using [3H]-cAMP as substrate at 1 uM after 30 mins by two-step radiometric assay
[19] = Metabolic stability in CD1 mouse liver microsomes incubated for 10 mins prior to NADPH addition measured after 60 mins by LC/MS/MS analysis; type: ADME; conditions: read-out: Stability
[20] = target: Dual 3',5'-cyclic-AMP and -GMP phosphodiesterase 11A (Homo sapiens) (UniProt Q9HCR9); assay: Inhibition of human recombinant PDE11A using [3H]-cAMP as substrate at 1 uM after 30 mins by two-step radiometric assay
[21] = target: T3, cAMP and cAMP-inhibited cGMP 3',5'-cyclic phosphodiesterase 10A (Mus musculus, UniProt Q8CA95); assay: Inhibition of mouse recombinant GST-tagged PDE10A using [3H]-cAMP as substrate after 30 mins by scintillation proximity assay
T3 sequence (Q8CA95 whole entry): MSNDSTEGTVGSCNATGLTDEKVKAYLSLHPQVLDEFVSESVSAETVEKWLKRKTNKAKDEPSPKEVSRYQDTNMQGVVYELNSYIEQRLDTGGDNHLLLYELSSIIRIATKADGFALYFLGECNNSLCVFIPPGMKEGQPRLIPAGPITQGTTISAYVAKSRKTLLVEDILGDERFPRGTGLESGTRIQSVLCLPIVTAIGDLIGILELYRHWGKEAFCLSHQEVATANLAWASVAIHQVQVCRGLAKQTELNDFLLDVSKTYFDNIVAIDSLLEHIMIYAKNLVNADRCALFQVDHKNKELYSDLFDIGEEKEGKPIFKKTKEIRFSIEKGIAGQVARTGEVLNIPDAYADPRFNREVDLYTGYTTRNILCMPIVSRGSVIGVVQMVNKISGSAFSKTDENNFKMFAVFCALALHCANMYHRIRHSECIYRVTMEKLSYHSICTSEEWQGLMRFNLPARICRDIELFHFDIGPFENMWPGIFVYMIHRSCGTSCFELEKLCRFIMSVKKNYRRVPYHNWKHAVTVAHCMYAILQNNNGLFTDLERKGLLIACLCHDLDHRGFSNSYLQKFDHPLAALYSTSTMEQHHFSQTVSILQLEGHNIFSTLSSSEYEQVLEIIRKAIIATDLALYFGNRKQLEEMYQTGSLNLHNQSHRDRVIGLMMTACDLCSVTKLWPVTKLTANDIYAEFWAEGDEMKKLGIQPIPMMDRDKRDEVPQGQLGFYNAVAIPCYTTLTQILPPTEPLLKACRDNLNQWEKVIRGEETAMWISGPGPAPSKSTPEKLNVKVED

T1 sequence (Q9Y233 whole entry): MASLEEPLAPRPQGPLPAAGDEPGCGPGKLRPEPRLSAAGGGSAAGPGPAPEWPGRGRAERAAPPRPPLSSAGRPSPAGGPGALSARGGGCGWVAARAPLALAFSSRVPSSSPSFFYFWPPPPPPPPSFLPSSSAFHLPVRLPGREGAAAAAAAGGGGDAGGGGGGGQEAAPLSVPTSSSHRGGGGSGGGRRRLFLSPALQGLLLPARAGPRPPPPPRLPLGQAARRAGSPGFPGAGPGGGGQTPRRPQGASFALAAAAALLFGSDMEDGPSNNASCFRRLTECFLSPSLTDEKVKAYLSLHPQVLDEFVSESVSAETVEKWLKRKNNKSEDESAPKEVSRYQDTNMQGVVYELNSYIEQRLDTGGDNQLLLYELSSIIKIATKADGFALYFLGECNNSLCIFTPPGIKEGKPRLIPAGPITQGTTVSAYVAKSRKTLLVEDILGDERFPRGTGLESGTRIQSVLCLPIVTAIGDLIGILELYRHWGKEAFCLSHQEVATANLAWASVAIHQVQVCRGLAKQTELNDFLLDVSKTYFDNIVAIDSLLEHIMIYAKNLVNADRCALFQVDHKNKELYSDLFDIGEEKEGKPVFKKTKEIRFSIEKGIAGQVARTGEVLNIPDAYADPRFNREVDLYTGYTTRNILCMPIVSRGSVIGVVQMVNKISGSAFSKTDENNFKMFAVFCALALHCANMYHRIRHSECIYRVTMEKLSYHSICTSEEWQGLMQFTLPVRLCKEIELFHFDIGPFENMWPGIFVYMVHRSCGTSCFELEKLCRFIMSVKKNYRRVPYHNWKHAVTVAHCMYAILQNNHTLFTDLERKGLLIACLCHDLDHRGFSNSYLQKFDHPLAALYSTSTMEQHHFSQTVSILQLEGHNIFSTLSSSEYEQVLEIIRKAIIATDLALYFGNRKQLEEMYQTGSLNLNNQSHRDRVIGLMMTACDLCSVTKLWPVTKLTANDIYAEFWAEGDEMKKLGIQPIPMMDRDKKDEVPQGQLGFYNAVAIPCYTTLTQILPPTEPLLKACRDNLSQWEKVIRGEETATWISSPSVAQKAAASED
Chain of High affinity 3',5'-cyclic-AMP phosphodiesterase 7A (Homo sapiens) (Q13946 whole entry): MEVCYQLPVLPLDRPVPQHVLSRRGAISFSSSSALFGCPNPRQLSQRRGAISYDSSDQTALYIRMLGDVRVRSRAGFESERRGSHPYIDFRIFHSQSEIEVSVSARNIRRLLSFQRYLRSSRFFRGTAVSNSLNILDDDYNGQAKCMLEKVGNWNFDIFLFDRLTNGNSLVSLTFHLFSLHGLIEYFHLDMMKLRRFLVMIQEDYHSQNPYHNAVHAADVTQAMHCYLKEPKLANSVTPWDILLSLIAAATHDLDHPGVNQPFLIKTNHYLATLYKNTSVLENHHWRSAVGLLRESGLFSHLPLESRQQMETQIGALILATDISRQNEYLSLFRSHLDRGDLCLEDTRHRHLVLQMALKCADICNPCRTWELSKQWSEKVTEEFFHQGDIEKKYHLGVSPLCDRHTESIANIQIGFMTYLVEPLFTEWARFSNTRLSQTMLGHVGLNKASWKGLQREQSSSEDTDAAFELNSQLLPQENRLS
Chain of cGMP-inhibited 3',5'-cyclic phosphodiesterase 3A (Homo sapiens) (Q14432 whole entry): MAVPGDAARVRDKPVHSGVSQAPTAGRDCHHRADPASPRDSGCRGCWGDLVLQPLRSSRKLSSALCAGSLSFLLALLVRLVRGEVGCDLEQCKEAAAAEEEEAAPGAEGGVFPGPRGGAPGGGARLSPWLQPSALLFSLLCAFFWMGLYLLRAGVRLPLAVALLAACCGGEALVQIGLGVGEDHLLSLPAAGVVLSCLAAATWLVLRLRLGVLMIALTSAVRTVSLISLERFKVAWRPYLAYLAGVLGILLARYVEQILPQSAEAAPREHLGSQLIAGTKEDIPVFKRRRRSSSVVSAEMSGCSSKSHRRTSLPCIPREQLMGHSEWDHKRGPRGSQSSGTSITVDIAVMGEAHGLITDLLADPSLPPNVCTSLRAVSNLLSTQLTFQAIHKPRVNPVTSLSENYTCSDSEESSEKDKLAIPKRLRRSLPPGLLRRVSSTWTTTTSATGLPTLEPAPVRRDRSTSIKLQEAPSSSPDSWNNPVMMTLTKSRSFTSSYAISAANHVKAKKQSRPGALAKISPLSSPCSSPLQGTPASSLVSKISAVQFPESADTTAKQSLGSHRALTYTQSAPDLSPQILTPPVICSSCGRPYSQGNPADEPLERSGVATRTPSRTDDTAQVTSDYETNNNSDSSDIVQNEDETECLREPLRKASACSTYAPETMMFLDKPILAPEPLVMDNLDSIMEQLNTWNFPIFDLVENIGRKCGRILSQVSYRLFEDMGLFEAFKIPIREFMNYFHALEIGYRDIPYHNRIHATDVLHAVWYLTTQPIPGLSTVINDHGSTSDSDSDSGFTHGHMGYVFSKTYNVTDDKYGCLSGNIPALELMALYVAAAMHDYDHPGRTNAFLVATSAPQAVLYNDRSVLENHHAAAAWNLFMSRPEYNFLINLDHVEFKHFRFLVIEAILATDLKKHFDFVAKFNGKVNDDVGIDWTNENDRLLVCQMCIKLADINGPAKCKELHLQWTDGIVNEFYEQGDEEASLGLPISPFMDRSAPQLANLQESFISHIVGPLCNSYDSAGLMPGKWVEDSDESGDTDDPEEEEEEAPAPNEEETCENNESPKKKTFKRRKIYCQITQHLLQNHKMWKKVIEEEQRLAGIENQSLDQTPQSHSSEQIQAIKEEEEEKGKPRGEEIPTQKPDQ
Chain of cGMP-dependent 3',5'-cyclic phosphodiesterase (Homo sapiens) (O00408 whole entry): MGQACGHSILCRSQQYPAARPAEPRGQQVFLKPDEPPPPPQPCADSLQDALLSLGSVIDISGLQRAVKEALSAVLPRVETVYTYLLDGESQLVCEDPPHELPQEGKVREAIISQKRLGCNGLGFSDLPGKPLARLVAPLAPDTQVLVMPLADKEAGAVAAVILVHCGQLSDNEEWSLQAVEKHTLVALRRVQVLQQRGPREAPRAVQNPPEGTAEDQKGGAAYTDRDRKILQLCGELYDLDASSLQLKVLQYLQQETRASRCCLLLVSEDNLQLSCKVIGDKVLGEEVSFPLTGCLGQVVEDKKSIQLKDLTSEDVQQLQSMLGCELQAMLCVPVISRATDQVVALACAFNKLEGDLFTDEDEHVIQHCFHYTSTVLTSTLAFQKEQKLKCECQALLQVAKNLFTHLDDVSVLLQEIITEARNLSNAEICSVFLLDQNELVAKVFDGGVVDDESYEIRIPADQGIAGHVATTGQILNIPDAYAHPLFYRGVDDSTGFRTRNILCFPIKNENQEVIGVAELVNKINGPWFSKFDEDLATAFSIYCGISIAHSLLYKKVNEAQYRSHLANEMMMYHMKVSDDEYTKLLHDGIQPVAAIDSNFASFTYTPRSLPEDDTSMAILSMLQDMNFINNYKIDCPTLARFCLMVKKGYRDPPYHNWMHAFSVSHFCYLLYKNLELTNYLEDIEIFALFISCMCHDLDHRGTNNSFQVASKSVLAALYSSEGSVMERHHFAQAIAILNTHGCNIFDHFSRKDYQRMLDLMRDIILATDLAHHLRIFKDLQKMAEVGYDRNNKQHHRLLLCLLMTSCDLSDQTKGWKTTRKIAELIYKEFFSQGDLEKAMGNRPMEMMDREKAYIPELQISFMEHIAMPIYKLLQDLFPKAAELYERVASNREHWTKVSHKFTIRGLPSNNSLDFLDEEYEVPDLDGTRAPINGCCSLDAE
Chain of Dual 3',5'-cyclic-AMP and -GMP phosphodiesterase 11A (Homo sapiens) (Q9HCR9 whole entry, looked up): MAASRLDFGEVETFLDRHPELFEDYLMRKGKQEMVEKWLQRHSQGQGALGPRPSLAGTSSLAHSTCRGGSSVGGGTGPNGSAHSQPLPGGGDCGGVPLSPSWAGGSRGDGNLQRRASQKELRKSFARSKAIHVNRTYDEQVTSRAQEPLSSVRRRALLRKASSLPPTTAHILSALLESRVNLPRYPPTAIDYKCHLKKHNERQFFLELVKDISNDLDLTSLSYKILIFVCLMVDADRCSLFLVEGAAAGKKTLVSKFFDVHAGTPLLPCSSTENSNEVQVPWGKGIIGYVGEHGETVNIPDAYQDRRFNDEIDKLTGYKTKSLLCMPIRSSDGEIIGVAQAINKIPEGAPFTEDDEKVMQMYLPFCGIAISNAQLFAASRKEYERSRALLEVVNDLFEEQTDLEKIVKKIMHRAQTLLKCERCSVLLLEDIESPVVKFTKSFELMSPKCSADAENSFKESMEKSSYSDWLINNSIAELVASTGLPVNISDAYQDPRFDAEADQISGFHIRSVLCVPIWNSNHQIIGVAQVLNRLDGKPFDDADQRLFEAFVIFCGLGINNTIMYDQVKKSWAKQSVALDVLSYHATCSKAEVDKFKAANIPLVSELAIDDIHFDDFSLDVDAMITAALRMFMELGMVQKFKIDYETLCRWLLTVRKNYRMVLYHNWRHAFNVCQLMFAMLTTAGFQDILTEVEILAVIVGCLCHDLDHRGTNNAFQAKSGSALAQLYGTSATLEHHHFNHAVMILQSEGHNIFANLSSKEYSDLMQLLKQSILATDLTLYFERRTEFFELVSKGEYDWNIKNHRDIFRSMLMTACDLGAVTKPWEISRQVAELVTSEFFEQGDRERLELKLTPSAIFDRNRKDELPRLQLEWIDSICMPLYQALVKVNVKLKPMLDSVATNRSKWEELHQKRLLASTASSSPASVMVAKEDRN

Row | inhibition [1] [%] | remaining at 1 h [2] [%] | remaining at 1 h [3] [%] | remaining at 1 h [4] [%] | inhibition [5] [%] | inhibition [6] [%] | inhibition [7] [%] | inhibition [8] [%] | inhibition [9] [%] | remaining at 1 h [10] [%] | inhibition [11] [%] | inhibition [12] [%] | IC50 [13] [nM] | inhibition [14] [%] | IC50 [15] [nM] | inhibition [16] [%] | inhibition [17] [%] | inhibition [18] [%] | remaining at 1 h [19] [%] | inhibition [20] [%] | Compound | further results
1 | 76.3 | 0.4 | 1.3 | 8.2 | 93.1 | 16 | 76.2 | 0.3 | 5.6 | 0.6 | 15.7 | 21.5 | 29.2 | 1 | 167 | 19.5 | 33.3 | 5.8 | 0.6 | 44.6 | Cn1cc(-c2cccc(Oc3nccc(N4CCOCC4)n3)c2)c2nc3ccccc3cc21 | 
2 |  | 5.9 | 43.3 | 12.2 | 78 |  |  |  |  | 0 |  |  | 136 |  | 552 |  |  |  | 8.5 |  | Cn1cc(C2=CCC(Oc3nccnc3-c3cncnc3)CC2)c2ncccc21 (stereo unspecified) | 
3 | 6.8 | 75 | 92 | 96 | 97.2 | 9.4 | 34.1 | 0.8 | 0 | 71 | 5.3 | 2.5 | 8.54 | 7.6 | 29.4 | 15.8 | 19.3 | 4 | 75.1 | 0.8 | Cn1cc(-c2ccc(Oc3nccnc3-c3ccncc3)cc2)c2nc3ccccc3cc21 | IC50 [21]: 22.6 nM
4 |  |  |  |  | 72.4 |  |  |  |  |  |  |  | 103 |  |  |  |  |  |  |  | COc1ccc(-c2ccnc(Oc3cccc(-c4cn(C)c5cc6ccccc6nc45)c3)n2)cc1 | 
5 |  |  |  |  | 76.9 |  |  |  |  |  |  |  | 177 |  |  |  |  |  |  |  | Cn1cc(-c2ccc(Oc3nccnc3-c3ccc(F)cc3)cc2)c2nc3ccccc3cc21 | 
6 | 43.8 | 44.7 | 40.3 | 39.8 | 95 | 1.5 | 38.5 | 1.1 | 4.2 | 4.5 | 11.4 | 4.8 | 18.2 | 57 | 90.3 | 14 | 23.6 | 4.5 | 3.9 | 24.4 | Cn1cc(-c2cccc(Oc3nccc(-c4cncnc4)n3)c2)c2nc3ccccc3cc21 | 
7 | 5.7 | 68 | 55.3 | 77 | 79.7 | 0.1 | 16.1 | 0.7 | 4.1 | 40.7 | 11.3 | 9.8 | 71 | 25.4 | 141 | 53.1 | 19.3 | 5.9 | 70.5 | 3.1 | Cn1cc(-c2ccc(Oc3nccnc3-c3ccncc3)cc2)c2ncc(Cl)cc21 | 
8 |  |  |  |  | 76.3 |  |  |  |  |  |  |  | 116 |  |  |  |  |  |  |  | Cn1cc(-c2cccc(Oc3nccc(-c4ccc(F)cc4)n3)c2)c2nc3ccccc3cc21 | 
9 | 21.8 | 83.1 | 77 | 85.2 | 94.8 | 9.4 | 14.2 | 0.3 | 1.3 | 68.3 | 8.9 | 9.4 | 19.1 | 19.5 | 31.1 | 20.2 | 17.3 | 6 | 76.1 | 3.3 | Cn1cc(-c2ccc(Oc3nccnc3-c3cncnc3)cc2)c2nc3ccccc3cc21 | 
10 |  |  |  |  | 76.3 |  |  |  |  |  |  |  | 267 |  | 1450 |  |  |  |  |  | Cn1cc(-c2cccc(Oc3nccnc3-c3cncnc3)c2)c2nc3ccccc3cc21 | 
11 |  |  |  |  | 72.3 |  |  |  |  |  |  |  | 153 |  | 132 |  |  |  |  |  | COc1ccc(-c2nccnc2Oc2ccc(-c3cn(C)c4cc5ccccc5nc34)cc2)cc1 | 
12 | 38.5 | 17.3 | 52 | 75.4 | 89.3 | 8.2 | 40.8 | 4.5 | 7.9 | 38.1 | 16.1 | 27.5 | 20.9 | 34.7 | 122 | 27.2 | 19 | 16.7 | 60.4 | 27.3 | Cn1cc(-c2cccc(Oc3nccc(-c4cn[nH]c4)n3)c2)c2nc3ccccc3cc21 | 
13 |  |  |  |  | 85.3 |  |  |  |  |  |  |  | 128 |  |  |  |  |  |  |  | Cn1cc(-c2ccc(Oc3nccc(-c4cncnc4)n3)cc2)c2nc3ccccc3cc21 | 
14 |  | 72.5 | 68.6 | 48.8 | 68.9 |  |  |  |  | 0 |  |  | 552 |  | 372 |  |  |  | 50.3 |  | Cn1cc(C2CCC(Oc3nccnc3-c3cncnc3)CC2)c2ncccc21 (stereo unspecified) | 
